Laboratory results reported in PubChem BioAssay (NCI).
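Following 48 hours of exposure in 96-well plates, responses at five concentrations were used to interpolate endpoints linearly. TGI denotes the concentration required for complete inhibition of growth.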

Legend:
Assay in all cases: growth of human tumour cells (NCI), 48 h
[1] = test system: SNB-75 CNS
[2] = test system: ACHN renal
[3] = test system: LOX IMVI melanoma
[4] = test system: UACC-62 melanoma
[5] = test system: SW-620 colon
[6] = test system: A549 NSCLC
[7] = test system: HOP-62 NSCLC
[8] = test system: SK-MEL-2 melanoma
[9] = test system: HL-60(TB) leukemia
[10] = test system: UO-31 renal

Measured: TGI

N#CCCN(CCC#N)c1ccc(/C=C2\N=C(CN3C(=O)c4ccccc4C3=O)OC2=O)cc1
> 100 µM: all assays above
